Laboratory results published in patent publication US9359308B2, “Pyrazine kinase inhibitors” (Portola Pharmaceuticals, Inc., priority 2011, dated 2016).

Target: T1, full length active recombinant SYK enzyme (Homo sapiens, UniProt P43405)
T1 construct: full length active recombinant SYK enzyme (Millipore, Calif.); purchased Millipore
Experiment: Inhibition of Syk tyrosine phosphorylation activity (LANCE TR-FRET kinase assay)
Format: biochemical
Conditions: activity in the Syk assays, class symbols
How it was run: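 1 nM full-length active recombinant SYK phosphorylated 550 nM biotin-DEEDYESP-OH with 100 μM ATP in 50 mM Tris pH 7.5, 5 mM MgCl2, 1 mM DTT and 3% DMSO for 1 h at room temperature. After EDTA quench, Eu-anti-phosphotyrosine/SA-APC TR-FRET was read after 1 h. IC50s came from non-linear regression.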

| Structure (SMILES) | IC50 [µM] |
| --- | --- |
| NC(=O)c1ncc(N[C@H]2CC[C@@H](N)CC2)nc1Nc1cnc2ccccc2c1 [Example 185, 5-((1s,4s)-4-aminocyclohexylamino)-3-(quinolin-3-ylamino)pyrazine-2-carboxamide] | 0.01 to 0.1 |
| Cn1cc(Nc2nc(N[C@@H]3CCCC[C@@H]3N)cnc2C(N)=O)cn1 [Example 186, 5-((1R,2S)-2-aminocyclohexylamino)-3-(1-methyl-1H-pyrazol-4-ylamino)pyrazine-2-carboxamide] | 0.01 to 0.1 |
| NC(=O)c1ncc(N[C@H]2CC[C@@H](N)CC2)nc1Nc1ccc2ncccc2c1 [Example 187, 5-((1s,4s)-4-aminocyclohexylamino)-3-(quinolin-6-ylamino)pyrazine-2-carboxamide] | 0.001 to 0.01 |
| NC(=O)c1ncc(NC2CCC(N)CC2)nc1Nc1cccc(-n2nccn2)c1 (stereo not shown) [Example 188, 3-(3-(2H-1,2,3-triazol-2-yl)phenylamino)-5-((1r,4r)-4-aminocyclohexylamino)pyrazine-2-carboxamide] | 0.001 to 0.01 |
| CC(C)[C@@H](Nc1cnc(C(N)=O)c(Nc2ccc3cnccc3c2)n1)C(N)=O [Example 189, (R)-5-(1-amino-3-methyl-1-oxobutan-2-ylamino)-3-(isoquinolin-6-ylamino)pyrazine-2-carboxamide] | 0.001 to 0.01 |
| NC(=O)c1ncc(N[C@@H](C(N)=O)C2CC2)nc1Nc1ccc2cnccc2c1 [Example 190, (R)-5-(2-amino-1-cyclopropyl-2-oxoethylamino)-3-(isoquinolin-6-ylamino)pyrazine-2-carboxamide] | 0.001 to 0.01 |
| CC(C)(C)[C@@H](Nc1cnc(C(N)=O)c(Nc2cnc3ccccc3c2)n1)C(N)=O [Example 191, (R)-5-(1-amino-3,3-dimethyl-1-oxobutan-2-ylamino)-3-(quinolin-3-ylamino)pyrazine-2-carboxamide] | 0.001 to 0.01 |
| CC(C)(C)[C@@H](Nc1cnc(C(N)=O)c(Nc2ccc3ncccc3c2)n1)C(N)=O [Example 192, (R)-5-(1-amino-3,3-dimethyl-1-oxobutan-2-ylamino)-3-(quinolin-6-ylamino)pyrazine-2-carboxamide] | 0.001 to 0.01 |
| CC(C)[C@@H](Nc1cnc(C(N)=O)c(Nc2cnc3cccnc3c2)n1)C(N)=O [Example 193, (R)-3-(1,5-naphthyridin-3-ylamino)-5-(1-amino-3-methyl-1-oxobutan-2-ylamino)pyrazine-2-carboxamide] | 0.01 to 0.1 |
| CC(C)[C@@H](Nc1cnc(C(N)=O)c(Nc2cnc3ccncc3c2)n1)C(N)=O [Example 194, (R)-3-(1,6-naphthyridin-3-ylamino)-5-(1-amino-3-methyl-1-oxobutan-2-ylamino)pyrazine-2-carboxamide] | 0.001 to 0.01 |
| CC(C)[C@@H](Nc1cnc(C(N)=O)c(Nc2ccc3ccncc3c2)n1)C(N)=O [Example 195, (R)-5-(1-amino-3-methyl-1-oxobutan-2-ylamino)-3-(isoquinolin-7-ylamino)pyrazine-2-carboxamide] | 0.001 to 0.01 |
| CC(C)C[C@@H](Nc1cnc(C(N)=O)c(Nc2cncc(C(F)(F)F)c2)n1)C(N)=O [Example 196, (R)-5-(1-amino-4-methyl-1-oxopentan-2-ylamino)-3-(5-(trifluoromethyl)pyridin-3-ylamino)pyrazine-2-carboxamide] | 0.01 to 0.1 |
| NC(=O)c1ncc(N[C@@H]2CCCC[C@@H]2N)nc1Nc1cncc(C(F)(F)F)c1 [Example 197, 5-((1R,2S)-2-aminocyclohexylamino)-3-(5-(trifluoromethyl)pyridin-3-ylamino)pyrazine-2-carboxamide] | 0.001 to 0.01 |
| NC(=O)c1ncc(N[C@@H]2CCCC[C@@H]2N)nc1Nc1cnc2ccc(F)cc2c1 [Example 198, 5-((1R,2S)-2-aminocyclohexylamino)-3-(6-fluoroquinolin-3-ylamino)pyrazine-2-carboxamide] | 0.001 to 0.01 |
| NC(=O)c1ncc(N[C@@H]2CCCC[C@@H]2N)nc1Nc1cccc(C(F)(F)F)c1 [Example 199, 5-((1R,2S)-2-aminocyclohexylamino)-3-(3-(trifluoromethyl)phenylamino)pyrazine-2-carboxamide] | 0.001 to 0.01 |
| CC(C)[C@@H](Nc1cnc(C(N)=O)c(Nc2cnc3ccc(F)cc3c2)n1)C(N)=O [Example 200, (R)-5-(1-amino-3-methyl-1-oxobutan-2-ylamino)-3-(6-fluoroquinolin-3-ylamino)pyrazine-2-carboxamide] | 0.001 to 0.01 |
| NC(=O)c1ncc(N[C@@H]2CCCC[C@@H]2N)nc1Nc1cnc2cc(F)ccc2c1 [Example 201, 5-((1R,2S)-2-aminocyclohexylamino)-3-(7-fluoroquinolin-3-ylamino)pyrazine-2-carboxamide] | 0.001 to 0.01 |
| NC(=O)c1ncc(N[C@@H]2CCCC[C@@H]2N)nc1Nc1cnc2c(F)cccc2c1 [Example 202, 5-((1R,2S)-2-aminocyclohexylamino)-3-(8-fluoroquinolin-3-ylamino)pyrazine-2-carboxamide] | 0.001 to 0.01 |
| CC(C)[C@@H](Nc1cnc(C(N)=O)c(Nc2cnc3cc(F)ccc3c2)n1)C(N)=O [Example 203, (R)-5-(1-amino-3-methyl-1-oxobutan-2-ylamino)-3-(7-fluoroquinolin-3-ylamino)pyrazine-2-carboxamide] | 0.001 to 0.01 |

| Structure (SMILES) | IC50 [µM] |
| --- | --- |
| CC(C)[C@@H](Nc1cnc(C(N)=O)c(Nc2cnc3c(F)cccc3c2)n1)C(N)=O [Example 204, (R)-5-(1-amino-3-methyl-1-oxobutan-2-ylamino)-3-(8-fluoroquinolin-3-ylamino)pyrazine-2-carboxamide] | 0.001 to 0.01 |
| NC(=O)c1ncc(N[C@@H]2CCCC[C@@H]2N)nc1Nc1cc(F)c2ncccc2c1 [Example 205, 5-((1R,2S)-2-aminocyclohexylamino)-3-(8-fluoroquinolin-6-ylamino)pyrazine-2-carboxamide] | < 0.001 |
| CC(C)[C@@H](Nc1cnc(C(N)=O)c(Nc2cc(F)c3ncccc3c2)n1)C(N)=O [Example 206, (R)-5-(1-amino-3-methyl-1-oxobutan-2-ylamino)-3-(8-fluoroquinolin-6-ylamino)pyrazine-2-carboxamide] | 0.001 to 0.01 |
| CN1C(=O)COc2ccc(Nc3nc(N[C@@H]4CCCC[C@@H]4N)cnc3C(N)=O)cc21 [Example 207, 5-((1R,2S)-2-aminocyclohexylamino)-3-(4-methyl-3-oxo-3,4-dihydro-2H-benzo[b][1,4]oxazin-6-ylamino)pyrazine-2-carboxamide] | 0.001 to 0.01 |
| CC[C@@H](Nc1cnc(C(N)=O)c(Nc2cc(F)c3ncccc3c2)n1)C(N)=O [Example 208, (R)-5-(1-amino-1-oxobutan-2-ylamino)-3-(8-fluoroquinolin-6-ylamino)pyrazine-2-carboxamide] | 0.001 to 0.01 |
| CC(C)[C@@H](Nc1cnc(C(N)=O)c(Nc2ccc(-c3ccccn3)cc2)n1)C(N)=O [Example 209, (R)-5-(1-amino-3-methyl-1-oxobutan-2-ylamino)-3-(4-(pyridin-2-yl)phenylamino)pyrazine-2-carboxamide] | 0.01 to 0.1 |
| NC(=O)c1ncc(N[C@@H]2CCCC(F)(F)[C@@H]2N)nc1Nc1cc(F)c2ncccc2c1 [Example 210, 5-((1R,2R)-2-amino-3,3-difluorocyclohexylamino)-3-(8-fluoroquinolin-6-ylamino)pyrazine-2-carboxamide] | 0.001 to 0.01 |
| CC[C@@H](Nc1cnc(C(N)=O)c(Nc2cnn(C)c2)n1)C(N)=O [Example 211, (R)-5-(1-amino-1-oxobutan-2-ylamino)-3-(1-methyl-1H-pyrazol-4-ylamino)pyrazine-2-carboxamide] | 0.1 to 1 |
| Cc1cc(Nc2nc(N[C@@H](C(N)=O)C(C)C)cnc2C(N)=O)sn1 [Example 212, (R)-5-(1-amino-3-methyl-1-oxobutan-2-ylamino)-3-(3-methylisothiazol-5-ylamino)pyrazine-2-carboxamide] | 0.001 to 0.01 |
| NC(=O)c1ncc(N[C@@H]2CCCC[C@@H]2N)nc1Nc1ccnnc1 [Example 213, 5-((1R,2S)-2-aminocyclohexylamino)-3-(pyridazin-4-ylamino)pyrazine-2-carboxamide] | 0.01 to 0.1 |
| Cc1cc(Nc2nc(N[C@@H](C(N)=O)C(C)(C)C)cnc2C(N)=O)sn1 [Example 214, (R)-5-(1-amino-3,3-dimethyl-1-oxobutan-2-ylamino)-3-(3-methylisothiazol-5-ylamino)pyrazine-2-carboxamide] | 0.01 to 0.1 |
| Cc1cc(Nc2nc(N[C@H](C)C(N)=O)cnc2C(N)=O)sn1 [Example 215, (R)-5-(1-amino-1-oxopropan-2-ylamino)-3-(3-methylisothiazol-5-ylamino)pyrazine-2-carboxamide] | 0.01 to 0.1 |
| CC(C)C[C@@H](Nc1cnc(C(N)=O)c(Nc2cncc(Cl)c2)n1)C(N)=O [Example 216, (R)-5-(1-amino-4-methyl-1-oxopentan-2-ylamino)-3-(5-chloropyridin-3-ylamino)pyrazine-2-carboxamide] | 0.001 to 0.01 |
| NC(=O)c1ncc(N[C@@H]2CCCC[C@@H]2N)nc1Nc1cncc(Cl)c1 [Example 217, 5-((1R,2S)-2-aminocyclohexylamino)-3-(5-chloropyridin-3-ylamino)pyrazine-2-carboxamide] | 0.001 to 0.01 |
| CC[C@@H](Nc1cnc(C(N)=O)c(Nc2cnn(CC3CC3)c2)n1)C(N)=O [Example 218, (R)-5-(1-amino-1-oxobutan-2-ylamino)-3-(1-(cyclopropylmethyl)-1H-pyrazol-4-ylamino)pyrazine-2-carboxamide] | 0.1 to 1 |
| NC(=O)c1ncc(N[C@@H]2CCCC[C@@H]2N)nc1Nc1cnn(CC2CC2)c1 [Example 219, 5-((1R,2S)-2-aminocyclohexylamino)-3-(1-(cyclopropylmethyl)-1H-pyrazol-4-ylamino)pyrazine-2-carboxamide] | 0.01 to 0.1 |
| Cc1cc(Nc2nc(NC3(C(N)=O)CC3)cnc2C(N)=O)sn1 [Example 220, 5-(1-carbamoylcyclopropylamino)-3-(3-methylisothiazol-5-ylamino)pyrazine-2-carboxamide] | 0.001 to 0.01 |
| CCc1cc(Nc2nc(N[C@H](CC)C(N)=O)cnc2C(N)=O)sn1 [Example 221, (R)-5-(1-amino-1-oxobutan-2-ylamino)-3-(3-ethylisothiazol-5-ylamino)pyrazine-2-carboxamide] | 0.001 to 0.01 |
